We go through eight compounds from paper PMC6278284, “Synthesis of Jacaranone-Derived Nitrogenous Cyclohexadienones and Their Antiproliferative and Antiprotozoal Activities” (Molecules, 2018).

Where two headings read alike, the source gives them in different places.

The subject of data set [1] is P. falciparum, strain NF54, erythrocytic stages. Briefly: In vitro growth inhibition assay of Plasmodium falciparum NF54 ([3H]-hypoxanthine incorporation). The settings on record: for IC50: Plasmodium falciparum; for SI (IC50 in L6 cells/IC50 P. falciparum): ratio IC50 L6 / IC50 P. falciparum NF54. In kind it is cell-based. The procedure: In vitro activity against erythrocytic stages of P. falciparum was determined by a modified [^3H]-hypoxanthine incorporation assay using the drug-sensitive NF54 strain and the standard drug, chloroquine (Sigma C6628). Briefly, parasite cultures incubated in RPMI 1640 medium with 5% AlbuMAX^TM (without hypoxanthine) were exposed to serial drug dilutions in microtiter plates. After 48 h of incubation at 37 °C in a reduced oxygen atmosphere, 0.5 μCi [^3H]-hypoxanthine was added to each well of the plate. Cultures were incubated for a further 24 h before they were harvested onto glass-fiber filters and washed with distilled water. The radioactivity was counted using a Betaplate^TM liquid scintillation counter (Wallac, Zurich). The results were recorded as counts per minute (CPM) per well at each drug concentration and expressed as a percentage of the untreated controls. IC50 values were calculated from the sigmoidal inhibition curves using Microsoft Excel.

Data set [2] concerns CCRF-CEM leukemia cells. In words: XTT viability assay, CCRF-CEM. The settings on record: Homo sapiens, read-out: metabolic active cells in % of control; for viability at 5 µg/mL / viability at 50 µg/mL: 72 h. In kind it is cell-based. How it is done: (§1) Human CCRF-CEM leukemia and MDA-MB-231 breast cancer cells lines were kept in RPMI1640 medium (Gibco®, ThermoFisher Scientific Inc., New York, NY, USA), supplemented with 2 mM L-glutamine (Gibco®), 10% heat-inactivated foetal bovine serum (FBS, Gibco®), 100 units/mL Penicillin (PAA), and 100 µg/mL Streptomycin (Gibco®) (1% Pen/Strep). HCT-116 and U251 cells were cultured in high-glucose Dulbecco’s Modified Eagle Medium (DMEM, Gibco®) containing 2 mM L-glutamine, 10% FBS, and 1% Pen/Strep. MRC-5 cells were grown in Minimum Essential Medium (MEM, Gibco®) supplemented with 2 mM L-glutamine, 10% FBS, and 1% Pen/Strep. All cells were kept in a humidified 5% CO2 atmosphere at 37 °C and passaged at 90% confluence.
(§2) A Cell Proliferation Kit II (XTT) was purchased from Sigma-Aldrich and performed as described previously and in accordance with the manufacturer’s protocol. In brief, adherent cell lines were seeded at a density of 50,000 cells/mL or 100,000 cells/mL (MRC-5) in 96 well plates (100 µL, flat bottom) and grown for 24 h before test compounds were added. Suspension cells (CCRF-CEM) were seeded at 100,000 cells/mL and test compounds were added immediately. After 72 h, XTT solution was added for another 90 min or 4 h (CCRF-CEM cells) and absorbance was measured at 490 nm with a reference wave length of 650 nm (Hidex Sense Microplate Reader 425-301, Hidex, Turku, Finland). Results are expressed as a percentage of the vehicle-treated (0.5% DMSO) control cells. Vinblastine served as the positive control (0.01 µg/mL).

Data set [3] deals with U251 glioblastoma cells. In words: XTT viability assay, U251. In kind it is cell-based. To be noted: Homo sapiens, U-251, read-out: metabolic active cells in % of control; for viability at 5 µg/mL: U251, 5 µg/mL; for viability at 5 µg/mL / viability at 50 µg/mL: 72 h; for viability at 50 µg/mL: U251, 50 µg/mL. How it is done:
as §1, §2
(In general: Tetrazolium dyes change colour on reduction, which living cells bring about.)

Data set [4] relates to HCT-116 colon cancer cells. In words: XTT viability assay, HCT-116. It is filed as cell-based. To be noted: Homo sapiens, read-out: metabolic active cells in % of control; for viability at 5 µg/mL: HCT 116, 5 µg/mL; for viability at 5 µg/mL / viability at 50 µg/mL: 72 h; for viability at 50 µg/mL: HCT 116, 50 µg/mL. The procedure:
as §1, §2

Data set [5] has as its system MDA-MB-231 breast cancer cells. In words: XTT viability assay, MDA-MB-231. It is filed as cell-based. The settings on record: Homo sapiens, read-out: metabolic active cells in % of control; for viability at 5 µg/mL: MDA-MB-231, 5 µg/mL; for viability at 5 µg/mL / viability at 50 µg/mL: 72 h; for viability at 50 µg/mL: MDA-MB-231, 50 µg/mL. How it is done:
as §1, §2

Data set [6] deals with L6 cells rat skeletal myoblasts. In words: Cytotoxicity against L6 cells (Alamar Blue). It is filed as cell-based. To be noted: read-out: Cyt. L6 IC50. The procedure:
Assays were performed in 96-well microtiter plates, each well containing 100 μL of RPMI 1640 medium supplemented with 1% L-glutamine (200 mM) and 10% foetal bovine serum, and 4000 L6 cells (a […] cell line derived from rat skeletal myoblasts). Serial drug dilutions of 11 threefold dilution steps covering a range from 100 to 0.002 μg/mL were prepared. After 72 h of incubation, the plates were inspected under an inverted microscope to assure growth of the controls and sterile conditions. 10 μL of Alamar Blue solution was then added to each well and the plates incubated for another 2 h. Then, the plates were read with a Spectramax Gemini XS microplate fluorometer (Molecular Devices Cooperation, Sunnyvale, CA, USA) using an excitation wavelength of 536 nm and an emission wavelength of 588 nm. The IC50 values were calculated by linear regression from the sigmoidal dose inhibition curves using the microplate reader software, Softmax Pro (Molecular Devices Cooperation, Sunnyvale, CA, USA). Podophyllotoxin (Sigma P4405) was used as the control.
In general terms: Alamar Blue is a resazurin reagent that responds to reducing activity.

Data set [7] has as its system T. brucei rhodesiense, strain STIB900 trypomastigote forms. In words: In vitro growth inhibition assay of Trypanosoma brucei rhodesiense (Alamar Blue). The settings on record: for IC50: Trypanosoma brucei, 72 h, read-out: T.b.rhod. IC50; for SI (IC50 in L6 cells/IC50 T. b. rhodesiense): ratio IC50 L6 / IC50 T. b. rhodesiense STIB900. In kind it is cell-based. The procedure:
Trypanosoma brucei rhodesiense, STIB 900 strain, and the standard drug, melarsoprol, were used for the assay. Minimum Essential Medium (50 μL) supplemented with 25 mM HEPES, 1g/L additional glucose, 1% MEM non-essential amino acids (100×), 0.2 mM 2-mercaptoethanol, 1 mM Na-pyruvate, and 15% heat-inactivated horse serum was added to each well of a 96-well microtiter plate. Serial drug dilutions of 11 three-fold dilution steps covering a range from 100 to 0.002 μg/mL were prepared. Then, 4 × 10^3 bloodstream forms of T. b. rhodesiense (STIB 900) in 50 μL were added to each well and the plate was incubated at 37 °C under a 5% CO2 atmosphere for 72 h. 10 μL Alamar Blue (resazurin, 12.5 mg in 100 mL double-distilled water) was then added to each well and incubation continued for a further 2–4 h. Then, the plates were read with a Spectramax Gemini XS microplate fluorometer (Molecular Devices Cooperation, Sunnyvale, CA, USA) using an excitation wavelength of 536 nm and an emission wavelength of 588 nm. The IC50 values were calculated from the sigmoidal inhibition curves using the microplate reader software, Softmax Pro (Molecular Devices Cooperation, Sunnyvale, CA, USA). Melarsoprol was used as the control.

Data set [8] relates to MRC-5 non-tumorigenic lung fibroblasts. In words: XTT viability assay, MRC-5. In kind it is cell-based, human. The settings on record: Homo sapiens, MRC5, read-out: metabolic active cells in % of control; for viability at 5 µg/mL: MRC-5, 5 µg/mL; for viability at 5 µg/mL / viability at 50 µg/mL: 72 h; for viability at 50 µg/mL: MRC-5, 50 µg/mL. The procedure: as §1, §2
The mark [9] stands for this setting: strain NF54, erythrocytic stages, read-out: P. falc. IC50.
Setting [10] is: L6 rat skeletal myoblasts, 72 h.
Setting [11] is: strain STIB900, trypomastigote forms.

The term IC50 denotes the point on the concentration scale where inhibition reaches its midpoint. `CCN(CC)CCCC(C)Nc1ccnc2cc(Cl)ccc12` (stereo not drawn) [Chl., Chloroquine, reference compound]: the IC50 in data set [1] (NF54, read-out: P. falc. IC50) was determined as 0.002 µM.
The term melting point denotes the temperature, or range, at which the solid turns liquid. Compound `O=C1C=CC(O)(CCN2C(=O)c3ccccc3C2=O)C=C1` [Compound 13a, N-[2-(1-Hydroxy-4-oxocyclohexa-2,5-dien-1-yl)ethyl]phthalimide] gave a melting point of 161 to 162 °C. Besides, in [2], the viability at 5 µg/mL stood at 4.42% and the viability at 50 µg/mL is 1.15%. For the same compound, the concentration for half-maximal inhibition (IC50) in data set [1] (setting [9]) came out at 3.78 µM. In addition, the “SI (IC50 in L6 cells/IC50 P. falciparum)” value in data set [1] was determined as 1.3. In addition, in data set [3], the viability at 5 µg/mL was 90.7% and the viability at 50 µg/mL was 3.21%. In data set [4], the viability at 5 µg/mL worked out at 55.4% and the viability at 50 µg/mL was 1.76%. In data set [5], the viability at 5 µg/mL was 37.8% and the viability at 50 µg/mL was found to be 17.4%. Also, the IC50 in data set [6] (setting [10]) came out at 5.08 µM. Further, the IC50 in data set [7] (setting [11]) came out at 1.58 µM. Also, the “SI (IC50 in L6 cells/IC50 T. b. rhodesiense)” value in [7] is listed as 3.2. In data set [8], the viability at 5 µg/mL is 43.7% and the viability at 50 µg/mL was determined as 1.93%.
As to `O=C1C=CC(O)(CCN2C(=O)CCC2=O)C=C1` [Compound 13c, N-[2-(1-Hydroxy-4-oxocyclohexa-2,5-dien-1-yl)ethyl]succinimide], the viability at 5 µg/mL stood at 79.1% in data set [2]; 93.3% in data set [3]; 99% in [4]; 79.8% in [5]; 139% in [8]. Moreover, the viability at 50 µg/mL in data set [2] was determined as 2.15%; in [3], 0.59%; in data set [4], 1.1%; in data set [5], 5.72%; in data set [8], 3.55%. The IC50 in data set [1] (setting [9]) was 8.63 µM; in data set [6] (setting [10]), 9.9 µM; in data set [7] (setting [11]), 6.93 µM.
In the case of `O=C1C=CC(O)(CCN2C(=O)c3cc(Cl)c(Cl)cc3C2=O)C=C1` [Compound 13d, 4,5-Dichloro-N-[2-(1-hydroxy-4-oxocyclohexa-2,5-dien-1-yl)ethyl]phthalimide], the melting point was in the range of 213 to 214 °C. Moreover, in data set [2], the viability at 5 µg/mL was determined as 13.8% and the viability at 50 µg/mL came to 3.33%. The IC50 in data set [1] (setting [9]) was 3.24 µM. Besides, in [1], the “SI (IC50 in L6 cells/IC50 P. falciparum)” value was determined as 1.9. Besides, in data set [3], the viability at 5 µg/mL is 72.1% and the viability at 50 µg/mL turned out to be 1.79%. Besides, in data set [4], the viability at 5 µg/mL turned out to be 41.2% and the viability at 50 µg/mL was found to be 0.44%. In data set [5], the viability at 5 µg/mL is 28.6% and the viability at 50 µg/mL amounted to 24.8%. In [6] (setting [10]), the half-inhibitory concentration (IC50) came out at 6.28 µM. Moreover, in [7] (setting [11]), the IC50 was determined as 5.71 µM. The “SI (IC50 in L6 cells/IC50 T. b. rhodesiense)” value in [7] is 1.1. In data set [8], the viability at 5 µg/mL worked out at 46.4% and the viability at 50 µg/mL stood at 1.01%.
Turning to `O=C1C=CC(O)(CCN2C(=O)C(Cl)=C(Cl)C2=O)C=C1` [Compound 13e, 3,4-Dichloro-N-[2-(1-hydroxy-4-oxocyclohexa-2,5-dien-1-yl)ethyl]maleimide], the melting point lay within 168 to 169 °C. In addition, in data set [2], the viability at 5 µg/mL was -2.6% and the viability at 50 µg/mL was 0.59%. In addition, the IC50 in [1] (setting [9]) turned out to be 74.4 µM. Moreover, the “SI (IC50 in L6 cells/IC50 P. falciparum)” value in [1] was determined as 0.1. Also, in data set [3], the viability at 5 µg/mL worked out at 95.6% and the viability at 50 µg/mL was found to be 1.95%. For the same compound, in data set [4], the viability at 5 µg/mL came out at 45.3% and the viability at 50 µg/mL was -0.43%. In addition, in data set [5], the viability at 5 µg/mL turned out to be 81.3% and the viability at 50 µg/mL was found to be 9.53%. Also, the IC50 in [6] (setting [10]) amounted to 10.3 µM. Further, the IC50 in data set [7] (setting [11]) is 2.26 µM. Moreover, the “SI (IC50 in L6 cells/IC50 T. b. rhodesiense)” value in data set [7] worked out at 4.5. Besides, in [8], the viability at 5 µg/mL stood at 97% and the viability at 50 µg/mL turned out to be 0.38%.
In the case of `Nc1nc(N)nc(Nc2ccc([As]3SCC(CO)S3)cc2)n1` (stereo not drawn) [Mel., melarsoprol, reference compound], the IC50 in data set [7] came to 0.004 µM.
On to `COc1cc([C@@H]2c3cc4c(cc3[C@H](O)[C@H]3COC(=O)[C@H]23)OCO4)cc(OC)c1OC` [Pod., podophyllotoxin, reference compound], for which, in [6] (Rattus norvegicus, L6, 72 h), the IC50 worked out at 0.007 µM.
`CC[C@]1(O)C[C@@H]2CN(CCc3c([nH]c4ccccc34)[C@@](C(=O)OC)(c3cc4c(cc3OC)N(C)[C@H]3[C@@](O)(C(=O)OC)[C@H](OC(C)=O)[C@]5(CC)C=CCN6CC[C@]43[C@@H]65)C2)C1` [VBN, Vinblastine, reference compound]: the viability at 0.01 µg/mL in [2] (0.01 µg/mL, positive control) was 23.6 ± 7.62%; in data set [3] (U251, 0.01 µg/mL, positive control) it was 45.3 ± 3.81%; in data set [4] (HCT 116, 0.01 µg/mL, positive control), 39 ± 5.1%; in data set [5] (MDA-MB-231, 0.01 µg/mL, positive control) it was 42 ± 7.97%; in [8] (MRC-5, 0.01 µg/mL, positive control), 63.8 ± 5.29%.
